Assay results reported in ChEMBL document CHEMBL1146438, “Structure and anti-acetylcholinesterase activity of 4 alpha-(hydroxymethyl)-4 alpha-demethylterritrem B” (J Nat Prod, 1997).

target: Acetylcholinesterase (Electrophorus electricus, UniProt O42275); assay: Inhibition of electric eel AChE by Ellman's method
Sequence (O42275 whole entry): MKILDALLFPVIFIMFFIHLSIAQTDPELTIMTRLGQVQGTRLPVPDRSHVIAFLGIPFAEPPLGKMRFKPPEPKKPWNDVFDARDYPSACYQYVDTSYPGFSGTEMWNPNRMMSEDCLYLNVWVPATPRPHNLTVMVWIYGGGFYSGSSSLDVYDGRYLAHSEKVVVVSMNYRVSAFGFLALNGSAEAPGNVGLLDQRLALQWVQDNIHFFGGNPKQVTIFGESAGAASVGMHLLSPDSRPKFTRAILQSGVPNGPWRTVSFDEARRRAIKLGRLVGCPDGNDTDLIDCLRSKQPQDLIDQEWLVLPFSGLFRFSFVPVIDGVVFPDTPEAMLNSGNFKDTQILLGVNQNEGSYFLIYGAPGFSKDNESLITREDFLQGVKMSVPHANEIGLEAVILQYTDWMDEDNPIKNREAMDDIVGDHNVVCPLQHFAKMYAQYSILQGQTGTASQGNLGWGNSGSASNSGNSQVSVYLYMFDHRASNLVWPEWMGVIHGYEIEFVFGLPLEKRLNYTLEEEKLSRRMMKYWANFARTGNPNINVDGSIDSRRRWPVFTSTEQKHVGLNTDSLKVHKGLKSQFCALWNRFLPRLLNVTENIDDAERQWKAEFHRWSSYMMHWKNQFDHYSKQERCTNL

Going from `C=CC[N+](C)(C)c1ccc(CCC(=O)CCc2ccc([N+](C)(C)CC=C)cc2)cc1` to `COc1cc(-c2cc3c(c(=O)o2)C[C@]2(O)[C@@]4(C)C(=O)C=C[C@](C)(CO)[C@]4(O)CC[C@@]2(C)O3)cc(OC)c1OC`, the IC50 rises from 10 nM to 790 nM (79-fold). The first is the more potent here.

In the case of `COc1cc(-c2cc3c(c(=O)o2)C[C@]2(O)[C@@]4(C)C(=O)C=C[C@@](C)(CO)[C@]4(O)CC[C@@]2(C)O3)cc(OC)c1OC` [4ALPHA-(HYDROXYMETHYL)-4ALPHA-DEMETHYLTERRITREM B], the IC50 is reported as 0.423 nM.
